In patent publication US20160310621A1, “IMAGING PROBES, FORMULATIONS, AND USES THEREOF” (priority 2015, published 2016):
Entries after “also recorded” stand apart in the source; their conditions may differ.

Test system: rat model of arthritis (bone uptake)
Assay: PET imaging in rat HKMT/IFA model of arthritis
Format: in vivo
Source text: Single modality BP imaging probes with ^18F were generated according to the Schemes described in FIGS. 6A-6B and FIG. 7. […] A rat (Lewis rats, 6-12 weeks of age) model of arthritis was generated by subcutaneous injection of heat killed Mycobacterium tuberculosis (strain H37Ra) suspended in incomplete Freund's adjuvant (HKMT/IFA). […] The swelling was easily identifiable by day 16 post injection, but undetectable in the animals on day 7 (FIGS. 12A-12D).
Rats were given a total of about 500 μCi (about 0.5 nmole) of freshly prepared ^18F-RIS-SFB (single modality BP conjugated imaging probe) by i.v. injection. PET imaging was conducted using a GE eXplore Vista small animal PET system.

[18F-].[Na+] [Na^18F]
time at which increased accumulation in bone is seen by PET (RA model rats, post induction): ~18 days
detection of early bone involvement in RA by PET (early time point (day 7), before clinical signs): fails to detect the earliest signs of bone involvement in RA; also recorded: does not detect the early bone involvement in RA at day 7
